Results: patent US20180036289A1 (Gilead Sciences, Inc., priority 2016, published 2018)

Experiments:
KU812 = assay: Cell proliferation assay (ATPlite), drug with vs without cobicistat; type: cell-based; conditions: KU812 cell line; 120 hours incubation
Description: (§1) All cell lines were obtained from the American Type Culture Collection (ATCC) Manassas, Va. (US). Master and working cell banks (MCB and WCB) were prepared by subculturing in ATCC-recommended media and freezing protocols (www.atcc.org). Cell line stocks for the assays were prepared from the WCB. The MCB, WCBs and assay stocks were prepared within respectively 3, 6 and 9 passages of the ATCC vial.
(§2) Solid powders of reference compounds were weighed on a calibrated balance and dissolved in 100% DMSO. DMSO samples were stored at room temperature. At the day of the experiment, the compound stock was diluted in 3.16 fold steps in 100% DMSO to obtain a 9-point dilution series. This was further diluted 31.6 times in 20 mM sterile Hepes buffer pH 7.4. A volume of 5 μl was transferred to the cells to generate a test concentration range from 3.16×10^−5M to 3.16×10^−9 M in duplicate. The final DMSO concentration during incubation was […] in all wells.
(§3) An assay stock was thawed and diluted in its ATCC recommended medium and dispensed in a 384-well plate, depending on the cell line used, at a concentration of 200-3200 cells per well in 45 μl medium. For each used cell line the optimal cell density is used. The margins of the plate were filled with phosphate-buffered saline. Plated cells were incubated in a humidified atmosphere of 5% CO2 at 37° C. After 24 hours, 5 μl of compound dilution was added and plates were further incubated for another 120 hours. After 120 hours, 25 μl of ATPlite 1Step™ (PerkinElmer) solution was added to each well, and subsequently shaken for 2 minutes. After 10 minutes of incubation in the dark, the luminescence was recorded on an Envision multimode reader (PerkinElmer).
(§4) IC50s were calculated by non-linear regression using IDBS XLfit 5. The percentage growth after 120 h (%-growth) was calculated as follows: 100%×(luminescencet=120h/luminescenceuntreated,t=120h). This was fitted to the ^10log compound concentration (conc) by a 4-parameter logistics curve: %−growth=bottom+(top−bottom)/(1+10^(log IC50-conc)*hill)), where hill is the Hill-coefficient, and bottom and top the asymptotic minimum and maximum cell growth that the compound allows in that assay.

A-549 = assay: as above; type: cell-based; conditions: A-549 cell line; 120 hours incubation
Description: as §1, §2, §3, §4

PA-1 = assay: as above; type: cell-based; conditions: PA-1 cell line; 120 hours incubation
Description: as §1, §2, §3, §4

HCT 116 = assay: as above; type: cell-based; conditions: HCT 116 cell line; 120 hours incubation
Description: as §1, §2, §3, §4

SW620 = assay: as above; type: cell-based; conditions: SW620 cell line; 120 hours incubation
Description: as §1, §2, §3, §4

BxPC-3 = assay: as above; type: cell-based; conditions: BxPC-3 cell line; 120 hours incubation
Description: as §1, §2, §3, §4

SJCRH30 = assay: as above; type: cell-based; conditions: SJCRH30 cell line; 120 hours incubation
Description: as §1, §2, §3, §4

SW48 = assay: as above; type: cell-based; conditions: SW48 cell line; 120 hours incubation
Description: as §1, §2, §3, §4

Daoy = assay: as above; type: cell-based; conditions: Daoy cell line; 120 hours incubation
Description: as §1, §2, §3, §4

VA-ES-BJ = assay: as above; type: cell-based; conditions: VA-ES-BJ cell line; 120 hours incubation
Description: as §1, §2, §3, §4

BT-549 = assay: as above; type: cell-based; conditions: BT-549 cell line; 120 hours incubation
Description: as §1, §2, §3, §4

A375 = assay: as above; type: cell-based; conditions: A375 cell line; 120 hours incubation
Description: as §1, §2, §3, §4

RT4 = assay: as above; type: cell-based; conditions: RT4 cell line; 120 hours incubation
Description: as §1, §2, §3, §4

A-204 = assay: as above; type: cell-based; conditions: A-204 cell line; 120 hours incubation
Description: as §1, §2, §3, §4

SUP-T1 = assay: as above; type: cell-based; conditions: SUP-T1 cell line; 120 hours incubation
Description: as §1, §2, §3, §4

SNU-C2B = assay: as above; type: cell-based; conditions: SNU-C2B cell line; 120 hours incubation
Description: as §1, §2, §3, §4

A388 = assay: as above; type: cell-based; conditions: A388 cell line; 120 hours incubation
Description: as §1, §2, §3, §4

T24 = assay: as above; type: cell-based; conditions: T24 cell line; 120 hours incubation
Description: as §1, §2, §3, §4

ACHN = assay: as above; type: cell-based; conditions: ACHN cell line; 120 hours incubation
Description: as §1, §2, §3, §4

MG-63 = assay: as above; type: cell-based; conditions: MG-63 cell line; 120 hours incubation
Description: as §1, §2, §3, §4

SW948 = assay: as above; type: cell-based; conditions: SW948 cell line; 120 hours incubation
Description: as §1, §2, §3, §4

A-498 = assay: as above; type: cell-based; conditions: A-498 cell line; 120 hours incubation
Description: as §1, §2, §3, §4

OVCAR-3 = assay: as above; type: cell-based; conditions: OVCAR-3 cell line; 120 hours incubation
Description: as §1, §2, §3, §4

MIA PaCa-2 = assay: as above; type: cell-based; conditions: MIA PaCa-2 cell line; 120 hours incubation
Description: as §1, §2, §3, §4

K-562 = assay: as above; type: cell-based; conditions: K-562 cell line; 120 hours incubation
Description: as §1, §2, §3, §4

SHP-77 = assay: as above; type: cell-based; conditions: SHP-77 cell line; 120 hours incubation
Description: as §1, §2, §3, §4

DoTc2 4510 = assay: as above; type: cell-based; conditions: DoTc2 4510 cell line; 120 hours incubation
Description: as §1, §2, §3, §4

DLD-1 = assay: as above; type: cell-based; conditions: DLD-1 cell line; 120 hours incubation
Description: as §1, §2, §3, §4

SK-N-FI = assay: as above; type: cell-based; conditions: SK-N-FI cell line; 120 hours incubation
Description: as §1, §2, §3, §4

TT = TT cell line; 120 hours incubation
Description: as §1, §2, §3, §4

| SMILES | Fold change in IC50 (IC50 [Drug + Cobicistat]/IC50 [Drug]) (KU812) [fold] | Fold change in IC50 (IC50 [Drug + Cobicistat]/IC50 [Drug]) (A-549) [fold] | Fold change in IC50 (IC50 [Drug + Cobicistat]/IC50 [Drug]) (PA-1) [fold] | Fold change in IC50 (IC50 [Drug + Cobicistat]/IC50 [Drug]) (HCT 116) [fold] | Fold change in IC50 (IC50 [Drug + Cobicistat]/IC50 [Drug]) (SW620) [fold] | Fold change in IC50 (IC50 [Drug + Cobicistat]/IC50 [Drug]) (BxPC-3) [fold] | Fold change in IC50 (IC50 [Drug + Cobicistat]/IC50 [Drug]) (SJCRH30) [fold] | Fold change in IC50 (IC50 [Drug + Cobicistat]/IC50 [Drug]) (SW48) [fold] | Fold change in IC50 (IC50 [Drug + Cobicistat]/IC50 [Drug]) (Daoy) [fold] | Fold change in IC50 (IC50 [Drug + Cobicistat]/IC50 [Drug]) (VA-ES-BJ) [fold] | Fold change in IC50 (IC50 [Drug + Cobicistat]/IC50 [Drug]) (BT-549) [fold] | Fold change in IC50 (IC50 [Drug + Cobicistat]/IC50 [Drug]) (A375) [fold] | Fold change in IC50 (IC50 [Drug + Cobicistat]/IC50 [Drug]) (RT4) [fold] | Fold change in IC50 (IC50 [Drug + Cobicistat]/IC50 [Drug]) (A-204) [fold] | Fold change in IC50 (IC50 [Drug + Cobicistat]/IC50 [Drug]) (SUP-T1) [fold] | Fold change in IC50 (IC50 [Drug + Cobicistat]/IC50 [Drug]) (SNU-C2B) [fold] | Fold change in IC50 (IC50 [Drug + Cobicistat]/IC50 [Drug]) (A388) [fold] | Fold change in IC50 (IC50 [Drug + Cobicistat]/IC50 [Drug]) (T24) [fold] | Fold change in IC50 (IC50 [Drug + Cobicistat]/IC50 [Drug]) (ACHN) [fold] | Fold change in IC50 (IC50 [Drug + Cobicistat]/IC50 [Drug]) (MG-63) [fold] | also measured |
| --- | --- | --- | --- | --- | --- | --- | --- | --- | --- | --- | --- | --- | --- | --- | --- | --- | --- | --- | --- | --- | --- |
| COc1cccc2c1C(=O)c1c(O)c3c(c(O)c1C2=O)C[C@@](O)(C(=O)CO)C[C@@H]3O[C@H]1C[C@H](N)[C@H](O)[C@H](C)O1 [doxorubicin] | 2.9 | 0.8 | 3.0 | 1.8 | 2.6 | 2.2 | 2.2 | 1.8 | 1.6 | 2.8 | 1.5 | 2.2 | 2.7 | 2.5 | 2.0 | 1.2 | 1.7 | 1.8 | 2.2 | 2.4 | Fold change in IC50 (IC50 [Drug + Cobicistat]/IC50 [Drug]) (SW948): 2.5 fold; Fold change in IC50 (IC50 [Drug + Cobicistat]/IC50 [Drug]) (A-498): 1.2 fold; Fold change in IC50 (IC50 [Drug + Cobicistat]/IC50 [Drug]) (OVCAR-3): 2.5 fold; Fold change in IC50 (IC50 [Drug + Cobicistat]/IC50 [Drug]) (MIA PaCa-2): 2.2 fold; Fold change in IC50 (IC50 [Drug + Cobicistat]/IC50 [Drug]) (K-562): 2.5 fold; Fold change in IC50 (IC50 [Drug + Cobicistat]/IC50 [Drug]) (SHP-77): 2.5 fold; Fold change in IC50 (IC50 [Drug + Cobicistat]/IC50 [Drug]) (DoTc2 4510): 1.7 fold; Fold change in IC50 (IC50 [Drug + Cobicistat]/IC50 [Drug]) (DLD-1): 1.4 fold; Fold change in IC50 (IC50 [Drug + Cobicistat]/IC50 [Drug]) (SK-N-FI): 2.0 fold; Fold change in IC50 (IC50 [Drug + Cobicistat]/IC50 [Drug]) (TT): 1.1 fold |
| CC[C@]1(O)C[C@@H]2CN(CCc3c([nH]c4ccccc34)[C@@](C(=O)OC)(c3cc4c(cc3OC)N(C)[C@H]3[C@@](O)(C(=O)OC)[C@H](OC(C)=O)[C@]5(CC)C=CCN6CC[C@]43[C@@H]65)C2)C1 [vinblastine] | 4.4 | 2.3 | 6.3 | 2.0 | 2.7 | 2.4 | 3.8 | 2.5 | 5.7 | 4.3 | 3.3 | 3.4 | 4.9 | 4.0 | 3.0 | 4.5 | 4.7 | 5.2 | 3.8 | 2.8 | Fold change in IC50 (IC50 [Drug + Cobicistat]/IC50 [Drug]) (SW948): 4.2 fold; Fold change in IC50 (IC50 [Drug + Cobicistat]/IC50 [Drug]) (A-498): 3.8 fold; Fold change in IC50 (IC50 [Drug + Cobicistat]/IC50 [Drug]) (OVCAR-3): 2.6 fold; Fold change in IC50 (IC50 [Drug + Cobicistat]/IC50 [Drug]) (MIA PaCa-2): 3.7 fold; Fold change in IC50 (IC50 [Drug + Cobicistat]/IC50 [Drug]) (K-562): 2.6 fold; Fold change in IC50 (IC50 [Drug + Cobicistat]/IC50 [Drug]) (SHP-77): 2.0 fold; Fold change in IC50 (IC50 [Drug + Cobicistat]/IC50 [Drug]) (DoTc2 4510): 5.0 fold; Fold change in IC50 (IC50 [Drug + Cobicistat]/IC50 [Drug]) (DLD-1): 2.2 fold; Fold change in IC50 (IC50 [Drug + Cobicistat]/IC50 [Drug]) (SK-N-FI): 4.5 fold; Fold change in IC50 (IC50 [Drug + Cobicistat]/IC50 [Drug]) (TT): 8.7 fold |
